Experimental findings from ChEMBL document CHEMBL4364299, “Discovery of a Potent Kelch-Like ECH-Associated Protein 1-Nuclear Factor Erythroid 2-Related Factor 2 (Keap1-Nrf2) Protein-Protein Interaction Inhibitor with Natural Proline Structure as a Cytoprotective Agent against Acetaminophen-Induced Hepatotoxicity” (J Med Chem, 2019) are described below.

Calls of active or inactive are those of the source. The rule behind the calls is not given here.

Experiment [1] addresses T1, Nuclear factor erythroid 2-related factor 2 (Homo sapiens) (UniProt Q16236).
T1 sequence (whole entry): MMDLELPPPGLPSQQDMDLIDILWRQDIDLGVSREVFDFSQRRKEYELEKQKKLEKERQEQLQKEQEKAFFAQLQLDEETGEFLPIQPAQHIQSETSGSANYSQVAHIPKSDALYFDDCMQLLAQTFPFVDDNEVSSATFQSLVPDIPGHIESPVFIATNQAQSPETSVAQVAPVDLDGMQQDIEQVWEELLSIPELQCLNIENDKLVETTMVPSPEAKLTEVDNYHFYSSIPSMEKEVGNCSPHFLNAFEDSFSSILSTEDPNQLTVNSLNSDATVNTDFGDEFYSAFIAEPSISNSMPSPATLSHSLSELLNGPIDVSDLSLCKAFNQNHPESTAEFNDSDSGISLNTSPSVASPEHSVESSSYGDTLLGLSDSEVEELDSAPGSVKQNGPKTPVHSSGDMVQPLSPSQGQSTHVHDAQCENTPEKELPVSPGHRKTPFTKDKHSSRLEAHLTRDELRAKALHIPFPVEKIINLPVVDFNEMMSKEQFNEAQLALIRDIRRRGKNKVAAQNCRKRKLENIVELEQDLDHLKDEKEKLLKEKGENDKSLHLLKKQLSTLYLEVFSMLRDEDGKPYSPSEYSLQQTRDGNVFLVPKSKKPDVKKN
Kind of experiment: Activation of Nrf2 (unknown origin) stably transfected in human HepG2-ARE-C8 cells assessed as increase in ARE-driven luciferase activity by luciferase reporter gene assay. The class given is cell-based. Background: Reporter assays use an easily measured gene product as a stand-in for the process of interest.

Experiment [2] concerns L02. Kind of experiment: Upregulation of GCLM mRNA expression in human L02 cells harboring Nrf2 siRNA at 10 uM measured after 10 hrs by trizol reagent based qRT-PCR analysis. Format: functional, cell-based.
The subject of experiment [3] is Mus musculus. The experiment can be described thus: Protection against APAP-induced hepatotoxicity in C57BL/6 mouse assessed as decrease in liver lymphocytes infiltration at 10 to 40 mg/kg, ip treated 2 hrs prior to 22 hrs starvation followed by APAP challenge and measured after 6 hrs by H and E staining-based light microscopic analysis. Format: functional, organism-based.

Experiment [4] relates to Mus musculus. Kind of experiment: Protection against APAP-induced hepatotoxicity in C57BL/6 mouse assessed as decrease in HO-1 expression in liver at 10 to 40 mg/kg, ip treated 2 hrs prior to 22 hrs starvation followed by APAP challenge and measured after 6 hrs by Dako/Mayer's hematoxylin staining-based immunohistochemical analysis. Format: functional, organism-based.
Experiment [5] concerns the target T1, Nuclear factor erythroid 2-related factor 2 (Homo sapiens). Kind of experiment: Activation of Nrf2 in human L02 cells harboring control siRNA assessed as increase in HO-1 expression at 10 uM measured after 10 hrs by Western blot analysis. Format: cell-based. In general terms: In western blotting, separated proteins are transferred to a membrane and probed.
Experiment [6] has the same target. Kind of experiment: Activation of Nrf2 in human L02 cells harboring control siRNA assessed as increase in NEFL2L mRNA expression at 10 uM measured after 10 hrs by trizol reagent based qRT-PCR analysis. The class given is cell-based. (In general: Real-time PCR tracks product formation cycle by cycle.)
For experiment [7], the system named is Mus musculus. The experiment can be described thus: Protection against APAP-induced hepatotoxicity in C57BL/6 mouse assessed as decrease in disease score at 10 to 40 mg/kg, ip treated 2 hrs prior to 22 hrs starvation followed by APAP challenge and measured after 6 hrs by H and E staining-based light microscopic analysis. Format: functional, organism-based.

Experiment [8] deals with Mus musculus. The experiment can be described thus: Protection against APAP-induced hepatotoxicity in C57BL/6 mouse assessed as decrease in total bilirubin level at 10 mg/kg, ip treated 2 hrs prior to 22 hrs starvation followed by APAP challenge and measured after 6 hrs. Format: functional, organism-based.
Experiment [9] has as its target T1, Nuclear factor erythroid 2-related factor 2 (Homo sapiens). Kind of experiment: Activation of Nrf2 in human L02 cells assessed as increase in GCLM mRNA expression measured after 12 hrs by trizol reagent based qRT-PCR analysis. The class given is cell-based.
For experiment [10], the system named is L02. The experiment can be described thus: Cytoprotective activity against APAP-induced oxidative stress in human L02 cells assessed as decrease in ALP level at 5 to 10 uM preincubated for 12 hrs followed by APAP stimulation and measured after 24 hrs. Format: functional, cell-based.
Experiment [11] concerns Mus musculus. The experiment can be described thus: Protection against APAP-induced hepatotoxicity in C57BL/6 mouse assessed as decrease in alpha-SMA expression in liver at 10 to 40 mg/kg, ip treated 2 hrs prior to 22 hrs starvation followed by APAP challenge and measured after 6 hrs by Dako/Mayer's hematoxylin staining-based immunohistochemical analysis. The class given is functional, organism-based.

On to `COc1ccc(S(=O)(=O)N(CC(=O)O)c2ccc(N3CCC[C@H]3C(=O)O)c3ccccc23)cc1`, for which the Activity entry in experiment [1] and in experiment [9] was “Dose-dependent effect” each time. Moreover, in experiment [2], the outcome was inactive. Moreover, the result in [3], in experiment [4], in experiment [5], in experiment [6], in experiment [7] and in experiment [8] was Active. Besides, the outcome in [10] and in experiment [11] was Active.
